The nature of series [1]: Apparent permeability of the compound in dog MDCKII-MDR1 cells measured after 1 hr. The following applies: mdck-mdr1, 1 h. Type of series: ADME, cell-based, Canis lupus familiaris.
In series [2] the target is Protein cereblon/Eukaryotic peptide chain release factor GTP-binding subunit ERF3A (Homo sapiens, UniProt P15170+Q96SW2). Put plainly: PROTAC activity at human CRBN/HiBiT-fused GSPT1 transfected in HEK293T cells assessed as induction of GSPT1 degradation measured after 4 hrs by Nano-Glo HiBiT lytic assay. It is filed as cell-based. (The HiBiT peptide binds its large partner to form an active luciferase.)
Sequence of Protein cereblon/Eukaryotic peptide chain release factor GTP-binding subunit ERF3A (Homo sapiens, UniProt P15170+Q96SW2) (Q96SW2 whole entry, the tested form may be a part): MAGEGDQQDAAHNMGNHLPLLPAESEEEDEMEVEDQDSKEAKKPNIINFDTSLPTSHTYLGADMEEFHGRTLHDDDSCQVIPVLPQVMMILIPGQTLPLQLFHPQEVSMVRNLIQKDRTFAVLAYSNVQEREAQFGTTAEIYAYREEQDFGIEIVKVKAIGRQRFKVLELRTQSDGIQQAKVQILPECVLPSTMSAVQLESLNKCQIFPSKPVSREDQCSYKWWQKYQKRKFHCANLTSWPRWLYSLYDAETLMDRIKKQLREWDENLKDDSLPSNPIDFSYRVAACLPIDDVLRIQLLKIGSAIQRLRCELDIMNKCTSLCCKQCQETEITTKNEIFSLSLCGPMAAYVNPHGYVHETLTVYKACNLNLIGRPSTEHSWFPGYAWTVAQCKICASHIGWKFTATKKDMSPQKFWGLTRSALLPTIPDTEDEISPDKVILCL
Sequence of Protein cereblon/Eukaryotic peptide chain release factor GTP-binding subunit ERF3A (Homo sapiens, UniProt P15170+Q96SW2) (P15170 whole entry, the tested form may be a part): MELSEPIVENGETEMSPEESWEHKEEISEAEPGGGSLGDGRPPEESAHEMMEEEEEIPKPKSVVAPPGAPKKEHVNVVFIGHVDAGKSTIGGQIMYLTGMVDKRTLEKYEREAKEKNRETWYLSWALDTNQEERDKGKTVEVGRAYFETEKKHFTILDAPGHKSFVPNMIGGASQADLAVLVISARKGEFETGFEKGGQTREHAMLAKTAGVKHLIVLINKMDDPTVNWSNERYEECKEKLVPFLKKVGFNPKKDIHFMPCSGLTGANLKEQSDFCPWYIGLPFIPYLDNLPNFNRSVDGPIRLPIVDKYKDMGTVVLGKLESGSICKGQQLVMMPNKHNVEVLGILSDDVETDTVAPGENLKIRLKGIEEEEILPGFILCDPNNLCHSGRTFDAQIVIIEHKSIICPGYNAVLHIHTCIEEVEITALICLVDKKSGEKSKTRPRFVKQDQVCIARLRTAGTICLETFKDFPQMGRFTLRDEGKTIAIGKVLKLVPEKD

The nature of series [3]: Aqueous solubility of the compound incubated for 18 hrs at pH 7.4 by UV spectrum based analysis. Type of series: physicochemical.
Series [4] concerns MV4-11. Put plainly: Antiproliferative activity against human MV4-11 cells assessed as reduction in cell viability measured after 3 days by CellTiter-Glo assay. Type of series: functional, cell-based. The following applies: for EC50: MV4-11, 72 h.
Series [5] deals with Protein cereblon/DNA damage-binding protein 1 (Homo sapiens, UniProt Q96SW2).
Sequence of Protein cereblon/DNA damage-binding protein 1 (Q96SW2 whole entry): as the sequence (Q96SW2 whole entry, the tested form may be a part) above
Sequence of Protein cereblon/DNA damage-binding protein 1 (Q16531 whole entry, further chain): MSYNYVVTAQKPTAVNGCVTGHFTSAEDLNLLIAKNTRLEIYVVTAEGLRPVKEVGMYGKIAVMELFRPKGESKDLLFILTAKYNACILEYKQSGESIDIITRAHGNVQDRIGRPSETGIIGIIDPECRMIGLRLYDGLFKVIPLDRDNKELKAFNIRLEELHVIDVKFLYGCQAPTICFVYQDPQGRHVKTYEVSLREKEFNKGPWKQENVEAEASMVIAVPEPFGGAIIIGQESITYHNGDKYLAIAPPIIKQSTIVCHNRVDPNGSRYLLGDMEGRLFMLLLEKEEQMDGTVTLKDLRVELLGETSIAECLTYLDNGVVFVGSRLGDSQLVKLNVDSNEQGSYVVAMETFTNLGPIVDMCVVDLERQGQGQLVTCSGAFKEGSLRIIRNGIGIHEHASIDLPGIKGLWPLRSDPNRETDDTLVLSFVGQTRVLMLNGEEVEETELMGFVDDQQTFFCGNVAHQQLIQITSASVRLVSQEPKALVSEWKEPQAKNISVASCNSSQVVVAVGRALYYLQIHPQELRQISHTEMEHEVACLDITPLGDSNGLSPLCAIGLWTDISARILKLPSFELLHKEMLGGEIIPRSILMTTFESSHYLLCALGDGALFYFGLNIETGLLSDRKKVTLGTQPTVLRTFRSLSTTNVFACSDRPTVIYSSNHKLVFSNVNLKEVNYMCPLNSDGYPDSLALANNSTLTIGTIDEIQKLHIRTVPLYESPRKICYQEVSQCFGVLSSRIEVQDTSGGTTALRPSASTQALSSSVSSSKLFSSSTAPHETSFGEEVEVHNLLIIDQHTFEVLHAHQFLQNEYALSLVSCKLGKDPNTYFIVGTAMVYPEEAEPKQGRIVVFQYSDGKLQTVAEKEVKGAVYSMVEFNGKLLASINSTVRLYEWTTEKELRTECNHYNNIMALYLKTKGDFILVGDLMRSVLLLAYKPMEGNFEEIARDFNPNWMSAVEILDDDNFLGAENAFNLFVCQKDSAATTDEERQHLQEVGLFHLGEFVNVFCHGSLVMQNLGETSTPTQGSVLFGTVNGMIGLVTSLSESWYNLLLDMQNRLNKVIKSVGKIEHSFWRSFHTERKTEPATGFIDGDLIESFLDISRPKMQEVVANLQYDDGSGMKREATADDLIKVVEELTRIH
The test system of series [6] is MV4-11. Put plainly: Antiproliferative activity against human MV4-11 cells transfected with FLAG-tagged GSPT1 G575N mutant assessed as reduction in cell viability measured after 3 days by CellTiter-Glo assay. Type of series: functional, cell-based. The following applies: time 3.0 day. On the technique in general: In ATP-based viability assays light output follows the ATP content of the culture.

Series [7] in a line: (§1) Antiproliferative activity against human MHHCALL4 cells harboring CRLF2-rearranged JAK2 mutation assessed as reduction in cell viability measured after 3 days by CellTiter-Glo assay. Type of series: functional, cell-based. The settings on record: MHHCALL4, 72 h.
The next series is filed under the species Homo sapiens. Put plainly: Induction of His-tagged CRBN/DDB1/biotin-tagged IKZF1 (unknown origin) ternary complex formation incubated for 90 mins by AlphaScreen assay. (In general: Alpha assays give light when donor and acceptor beads are brought close together.)
Series [8] relates to MV4-11. Put plainly: Antiproliferative activity against CRBN knock-out human MV4-11 cells assessed as reduction in cell viability measured after 3 days by CellTiter-Glo assay. Type of series: functional, cell-based. The following applies: time 3.0 day.
For series [9], the target named is T1, Protein cereblon/Eukaryotic peptide chain release factor GTP-binding subunit ERF3A (Homo sapiens, UniProt Q96SW2+P15170). The settings on record: MV4-11, dose 100.0 nM, time 24.0 hrs.
Target sequence in this assay (P15170 whole entry, looked up): as the sequence (P15170 whole entry, the tested form may be a part) above
Target sequence in this assay (Q96SW2 whole entry, looked up): as the sequence (Q96SW2 whole entry, the tested form may be a part) above
Series [10] in a line: Cytotoxicity against human PBMC assessed as reduction in cell viability.
Series [11] deals with MV4-11. Put plainly: Antiproliferative activity against human MV4-11 cells assessed as reduction in cell viability measured after 3 days in presence of CRBN ligand, lenalidomide by CellTiter-Glo assay. The settings on record: time 3.0 day. Type of series: functional, cell-based.
Series [12] is described as follows: (§2) Antiproliferative activity against human MB004 cells harboring TP53 mutation at codon 274 GTT-TGT assessed as reduction in cell viability measured after 3 days by CellTiter-Glo assay. The settings on record: MB004, 72 h. Type of series: functional, cell-based.
Series [13] has as its system MV4-11. Put plainly: PROTAC activity at CRBN/FLAG-tagged GSPT1 G575N mutant transfected in human MV4-11 cells assessed as induction of GSPT1 mutant degradation at 1 to 10 uM measured after 24 hrs by immunoblot analysis. It is filed as cell-based. The following applies: dose 1-10 µM.
Series [14] is described as follows: (§3) Antiproliferative activity against human HD-MB03 cells assessed as reduction in cell viability measured after 3 days by CellTiter-Glo assay. It is filed as functional, cell-based. The settings on record: HD-MB03, 72 h.
Series [15] relates to MV4-11. Put plainly: Induction of apoptosis in human MV4-11 cells assessed as caspase activation at 10 to 100 nM measured after 24 hrs by luminescent Caspase-Glo assay. It is filed as functional, cell-based. The settings on record: dose 10-100 nM.
Series [16] deals with MV4-11. Type of series: cell-based. The settings on record: Homo sapiens, dose 1-10 µM, time 24.0 hrs.
The target in series [17] is T1, Protein cereblon/Eukaryotic peptide chain release factor GTP-binding subunit ERF3A. The settings on record: MV4-11, dose 100.0 nM, time 4.0 hrs.
Target sequence in this assay (P15170 whole entry, looked up): as the sequence (P15170 whole entry, the tested form may be a part) above
Target sequence in this assay (Q96SW2 whole entry, looked up): as the sequence (Q96SW2 whole entry, the tested form may be a part) above
Series [18] in a line: Protein binding in human plasma at 10 uM incubated for 4 hrs by UHPLC-MS/MS analysis. Type of series: ADME, cell-free.
Series [19] has as its system MV4-11. Put plainly: Induction of apoptosis in human MV4-11 cells assessed as caspase activation at 10 to 100 nM measured after 8 hrs by luminescent Caspase-Glo assay. Type of series: functional, cell-based. The following applies: dose 10-100 nM.
Series [20] concerns MV4-11. Put plainly: PROTAC activity at CRBN/SERPINF1 in human MV4-11 cells assessed as induction of SERPINF1degradation at 1 uM measured after 4 hrs by tandem mass tag mass spectrometry analysis. Type of series: cell-based.
Series [21] in a line: Protein binding in mouse plasma at 10 uM incubated for 4 hrs by UHPLC-MS/MS analysis. Type of series: ADME, cell-free.
The subject of series [22] is MV4-11. Put plainly: PROTAC activity at CRBN/GSPT2 in human MV4-11 cells assessed as induction of GSPT2 degradation at 1 uM measured after 4 hrs by tandem mass tag mass spectrometry analysis. Type of series: cell-based.
The nature of series [23]: Half life in CD-1 mouse liver microsomes measured upto 240 mins in presence of NADPH regenerating system by UHPLC-MS/MS analysis. It is filed as ADME, Microsome. The following applies: 4 h.
The target of series [24] is T1, Protein cereblon/Eukaryotic peptide chain release factor GTP-binding subunit ERF3A. The following applies: mhhcall4.
Target sequence in this assay (Q96SW2 whole entry): as the sequence (Q96SW2 whole entry, the tested form may be a part) above
Target sequence in this assay (P15170 whole entry): as the sequence (P15170 whole entry, the tested form may be a part) above
A short description of series [25]: Half life in human liver microsomes measured upto 240 mins in presence of NADPH regenerating system by UHPLC-MS/MS analysis. Type of series: ADME, Microsome. The settings on record: 4 h.
For a further series, the system named is MHHCALL4. The description is as §1. It is filed as functional, cell-based. The settings on record: time 3.0 day.
Another series has as its system MB004. The series is described as §2. It is filed as functional, cell-based. The following applies: time 3.0 day.
A further series relates to HD-MB03. Described as §3. Type of series: functional, cell-based. The settings on record: time 3.0 day.

The structures appear in SMILES notation. In brackets after ≈: the same amount, converted by molar mass. Activity calls are given as the source filed them. No cut-off for these calls is given here.

From ChEMBL document CHEMBL5036322 (J Med Chem, 2021) come the findings set out here.

As usually defined, the Papp is a coefficient for how fast a substance crosses the barrier. The term EC50 denotes the midpoint of the concentration-response curve. In general, solubility refers to how much of the substance goes into solution per volume. High values mean much dissolved substance, low ones little dissolved substance. In general, IC50 refers to the concentration at which inhibition is half-maximal. As a reminder, the Emax is the greatest response seen or fitted, relative to the assay's reference.

Turning to `O=C1CCC(N2C(=O)c3ccc(NS(=O)(=O)c4cccc(Cl)c4)cc3C2=O)C(=O)N1` (stereo not given), in series [1], the Papp was determined as 1.7 ×10⁻⁶ cm/s. Moreover, the concentration for a half-maximal effect (EC50) (in series [2]; with MV4-11 [4]) was over 10000 nM in each case. The molecule also gave a solubility at 18 h in series [3] of 74 µM (≈ 33.1 µg/mL). This molecule registered an IC50 in [5] of 23 nM.
Consider `O=C1CCC(N2C(=O)c3ccc(NS(=O)(=O)c4cccc(OC(F)(F)F)c4)cc3C2=O)C(=O)N1` (stereo not given), for which the Papp in series [1] worked out at 4 ×10⁻⁶ cm/s. The EC50 (in [2]; with MV4-11 [4]) was over 10000 nM in each case. In addition, the solubility at 18 h in [3] turned out to be 64 µM (≈ 31.8 µg/mL). The molecule also came in with an IC50 in series [5] of 10 nM.
Take `Cc1ccc(S(=O)(=O)Nc2ccc3c(c2)C(=O)N(C2CCC(=O)NC2=O)C3=O)cc1Cl` (stereo not given): the apparent permeability (Papp) in series [1] came to 4.6 ×10⁻⁶ cm/s. Besides, the EC50 (in series [2]; in the series on MV4-11 [4]) was over 10000 nM throughout. This molecule also displayed an IC50 in series [5] of 1 nM.
Consider `COc1ccccc1S(=O)(=O)Nc1ccc2c(c1)C(=O)N(C1CCC(=O)NC1=O)C2=O` (stereo not given), for which, in series [1], the Papp was determined as 0.6 ×10⁻⁶ cm/s. Moreover, the EC50 (in series [2]; with MV4-11 [4]) was over 10000 nM throughout. This molecule also displayed a solubility at 18 h in series [3] of 85 µM (≈ 37.7 µg/mL). In series [5], this molecule yielded an IC50 of 612 nM.
Turning to `Cc1c(Cl)cccc1S(=O)(=O)Nc1ccc2c(c1)C(=O)N(C1CCC(=O)NC1=O)C2=O` (stereo not given), the result in the series on MV4-11 [6], in the series filed under Homo sapiens, in the series on MV4-11 [8], with MV4-11 [11], in the series with MV4-11 [13] and with MV4-11 [16] was inactive. Besides, the results for the EC50 in series [7], in series [12] and in [14] were 4.4 nM, 1100 nM and over 8000 nM, respectively. In series [1], the Papp worked out at 3.6 ×10⁻⁶ cm/s. Further, the Emax in series [9] was determined as 90%. Also, the Activity result in [10] is given as “Toxic”. In series [3], the solubility at 18 h worked out at 64 µM (≈ 29.6 µg/mL). The outcome in the series with MV4-11 [15] was Active.
For `O=C1CCC(N2Cc3cc(CNC(=O)C(F)(F)c4ccc(Cl)cc4)ccc3C2=O)C(=O)N1` (stereo not given), the Papp in [1] turned out to be 4.9 ×10⁻⁶ cm/s. Besides, the Activity entry in [10] was “Toxic”. The molecule further came in with a solubility at 18 h in series [3] of 77 µM (≈ 35.6 µg/mL). The EC50 in the series on MV4-11 [4] worked out at 62 nM.
As for `O=C1CCC(N2C(=O)c3ccc(NS(=O)(=O)c4ccccc4)cc3C2=O)C(=O)N1` (stereo not given), the Papp in series [1] was 3.6 ×10⁻⁶ cm/s. Also, the EC50 (in series [2]; with MV4-11 [4]) was over 10000 nM each time. This molecule displayed a solubility at 18 h in [3] of 71 µM (≈ 29.4 µg/mL). This molecule also came in with an IC50 in series [5] of 3 nM.
For `O=C1CCC(N2C(=O)c3ccc(NS(=O)(=O)c4ccccc4C(F)(F)F)cc3C2=O)C(=O)N1` (stereo not given), the Papp in [1] was 1.4 ×10⁻⁶ cm/s. Further, the EC50 in series [2] turned out to be 52 nM; in the series with MV4-11 [4] it was 89 nM. The molecule further came in with a solubility at 18 h in series [3] of 66 µM (≈ 31.8 µg/mL). The molecule further registered an IC50 in series [5] of 337 nM.
Taken in the same sequence, the figures for `O=C1CCC(N2C(=O)c3ccc(NS(=O)(=O)c4ccc(OC(F)(F)F)cc4)cc3C2=O)C(=O)N1` (stereo not given) were 1.1 ×10⁻⁶ cm/s, over 10000 nM, over 10000 nM, 76 µM (≈ 37.8 µg/mL) and 9 nM.
With `O=C1CCC(N2C(=O)c3ccc(NS(=O)(=O)c4ccccc4OC(F)(F)F)cc3C2=O)C(=O)N1` (stereo not given), the result in the series with MV4-11 [6], in the series filed under Homo sapiens, with MV4-11 [8], in the series on MV4-11 [11], in the series with MV4-11 [13] and with MV4-11 [16] was inactive. Besides, the EC50 in series [7] worked out at 0.4 nM; in the series on MV4-11 [4], 1.5 nM; in series [12], 336 nM; in series [14] it was 3580 nM. In addition, in series [17], the Emax was determined as 90%. For the same molecule, in series [1], the apparent permeability coefficient (Papp) came out at 2.3 ×10⁻⁶ cm/s. The PPB in series [18] was 99.1%; in [21] it was 99.3%. Further, the outcome with MV4-11 [19], with MV4-11 [20] and in the series on MV4-11 [22] was Active. In addition, in series [10], the Activity result is “Toxic”. In [3], the solubility at 18 h came to 67 µM (≈ 33.3 µg/mL). Besides, the t1/2 in series [23] came to 4.7 h; in series [25], 5.7 h. Besides, the DC50 entry in series [24] is recorded as “Not Active”.
Take `Cc1ccccc1S(=O)(=O)Nc1ccc2c(c1)C(=O)N(C1CCC(=O)NC1=O)C2=O` (stereo not given): the Papp in [1] came to 6.8 ×10⁻⁶ cm/s. Moreover, the EC50 in series [2] was determined as 9320 nM; with MV4-11 [4] it was 7400 nM. The same molecule gave a solubility at 18 h in series [3] of 84 µM (≈ 35.9 µg/mL). This molecule also had an IC50 in series [5] of 11 nM.
For `Cc1ccc(NC(=O)NCc2ccc3c(c2)CN(C2CCC(=O)NC2=O)C3=O)cc1Cl` (stereo not given), the outcome in the series with MHHCALL4, with MV4-11 [4] (time 3.0 day), with MB004 and in the series on HD-MB03 was Active. For the same molecule, the Activity result in [10] is given as “Toxic”. This molecule registered a 50% inhibitory concentration (IC50) in series [5] of 18 nM.
